Laboratory results from PubChem BioAssay (NCI).
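Cultured in 96-well plates, cells were exposed to test compound for 48 hours across five concentrations. Definition used: TGI = concentration required for complete inhibition of growth.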

Legend:
Test in all cases: NCI tumour cell line growth inhibition, 48 h
[1] = test system: DMS 114 small cell lung
[2] = test system: DMS 273 small cell lung
[3] = test system: KM20L2 colon
[4] = test system: RXF-631 renal
[5] = test system: XF 498 CNS
[6] = test system: HOP-18 NSCLC
[7] = test system: LXFL 529 NSCLC
[8] = test system: SNB-78 CNS
[9] = test system: P388 leukemia
[10] = test system: P388/ADR leukemia
[11] = test system: SN12K1 renal

| Structure (SMILES) | TGI [1] | TGI [2] | TGI [3] | TGI [4] | TGI [5] | TGI [6] | TGI [7] | TGI [8] | TGI [9] | TGI [10] | TGI [11] |
| --- | --- | --- | --- | --- | --- | --- | --- | --- | --- | --- | --- |
| CCN(CC)CCO[Si](OCCN(CC)CC)(OCCN(CC)CC)OCCN(CC)CC | > 100 µM | > 100 µM | > 100 µM | > 100 µM | > 100 µM | – | – | – | – | – | – |
| O=C(CCC1CCCCN1)Nc1ccc2c(c1)C(=O)c1ccc(NC(=O)CCN3CCCCC3)cc1C2=O (configuration not stated) | 2.97 µM | 7.55 µM | 14.5 µM | – | – | 9.77 µM | 2.7 µM | > 100 µM | – | – | – |
| CCOC(C)OC1CC(n2cc(C)c(=O)[nH]c2=O)OC1CO (configuration not stated) | > 100 µM | > 100 µM | > 100 µM | – | > 100 µM | > 100 µM | > 100 µM | > 100 µM | – | – | – |
| C(=C/c1nc2ccccc2o1)/c1ccc2c(c1)OCO2 | > 100 µM | > 37.5 µM | > 53 µM | – | 48.8 µM | 60.8 µM | – | 90.6 µM | > 35.8 µM | > 43.7 µM | 42 µM |
| COC(=O)C1c2cc3c(c(O)c2C(O)CC1(C)O)C(=O)c1c(O)cc2c(c1C3=O)OC1OC2(C)C(O)C(N(C)C)C1O (configuration not stated) | > 100 µM | > 100 µM | > 100 µM | – | > 100 µM | > 100 µM | > 100 µM | > 100 µM | – | – | – |
| CC1OC(=O)C(C(C)C)NC(=O)C(C(C)C)OC(=O)C(C(C)C)NC(=O)C(C)OC(=O)C(C(C)C)NC(=O)C(C(C)C)OC(=O)C(C(C)C)NC(=O)C(C)OC(=O)C(C(C)C)NC(=O)C(C(C)C)OC(=O)C(C(C)C)NC1=O (configuration not stated) | 0.0191 µM | 0.0141 µM | 0.493 µM | – | – | 0.0539 µM | – | 4.46 µM | 0.25 µM | 0.0325 µM | 0.816 µM |
